Entries after “also recorded” stand apart in the source; their conditions may differ.
Tests used:
[1] = test system: adiponectin gene expression; details: compared with full PPAR γ-agonists like pioglitazone; cited from earlier work
[2] = test system: adipocyte differentiation; details: compared with full PPAR γ-agonists like pioglitazone; cited from earlier work
PPARδ = target: T1, PPARδ (Homo sapiens, UniProt Q03181); details: cited from earlier work
T1 sequence (Q03181 1-441): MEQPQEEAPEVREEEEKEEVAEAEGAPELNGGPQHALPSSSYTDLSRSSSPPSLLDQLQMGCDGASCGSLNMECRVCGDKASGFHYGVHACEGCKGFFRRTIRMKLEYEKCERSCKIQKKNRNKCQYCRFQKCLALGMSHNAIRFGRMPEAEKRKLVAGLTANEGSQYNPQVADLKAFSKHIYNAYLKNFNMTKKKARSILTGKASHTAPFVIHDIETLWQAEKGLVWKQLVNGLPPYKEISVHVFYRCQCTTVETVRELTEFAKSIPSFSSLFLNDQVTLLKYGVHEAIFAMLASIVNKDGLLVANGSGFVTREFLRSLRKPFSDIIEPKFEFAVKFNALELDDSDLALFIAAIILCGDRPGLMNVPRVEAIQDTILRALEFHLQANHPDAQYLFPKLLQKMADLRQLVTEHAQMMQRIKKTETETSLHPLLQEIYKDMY

PPARα = target: T2, PPARα (Homo sapiens, UniProt Q07869); details: cited from earlier work
T2 sequence (Q07869 1-468): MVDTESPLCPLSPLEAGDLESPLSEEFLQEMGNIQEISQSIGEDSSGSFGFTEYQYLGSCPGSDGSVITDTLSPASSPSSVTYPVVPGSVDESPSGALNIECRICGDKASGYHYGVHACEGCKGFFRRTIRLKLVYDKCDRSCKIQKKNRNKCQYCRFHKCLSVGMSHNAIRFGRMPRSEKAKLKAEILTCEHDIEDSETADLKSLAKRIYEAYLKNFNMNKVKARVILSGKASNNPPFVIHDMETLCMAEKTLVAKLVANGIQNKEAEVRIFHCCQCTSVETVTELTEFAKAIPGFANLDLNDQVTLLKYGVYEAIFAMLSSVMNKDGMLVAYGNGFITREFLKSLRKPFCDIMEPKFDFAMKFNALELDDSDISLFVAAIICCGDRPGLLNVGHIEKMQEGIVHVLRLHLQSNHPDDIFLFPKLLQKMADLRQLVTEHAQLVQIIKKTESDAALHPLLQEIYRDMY

[3] = test system: mouse model of human alcoholic hepatitis; assay: AH mouse model (chronic and binge ethanol feeding plus LPS), dose-response study; assay type: in vivo; details: for effect on body weight: 10, 30 and 50 mg/kg/day oral gavage, male and female mice
Excerpt: Mouse model generation and treatment. The AH mouse model was generated as described in Shah et al. through chronic and binge ethanol feeding plus lipopolysaccharides (LPS) administration to provide a second hit to increase liver damage (Shah R et al., Oxid Med Cell Longev, (2018), 2018:9630175; Lamas-Paz A et al., World J Gastroenterol, (2018), 24:5063-75). This model is easy to implement and recapitulates the major features of human AH including marked ALT elevation, liver steatosis, and fibrosis (O'Beirne J., Dig Dis Sci., (2020), 65:920-1). A total of 60 mice, were used at a 50:50 male/female ratio to provide a comprehensive representation applicable in treating the general population. C57BL6 mice (6-8-week-old) were fed Lieber-DeCarli '82 rodent liquid diet (LDC) ad libitum for 5 days to acclimatize them to tube feeding. On day 6, mice were treated according to Table 1. Ethanol-fed groups were allowed free access to LDC diet containing 5% (vol/vol) ethanol for 11 days, and control groups were pair-fed with the LDC diet only. Indeglitazar was administered by oral gavage starting from day 6. On day 12, mice were given a single dose of 5 g/kg/bw of EtOH by oral gavage, and LPS (2 mg/kg/bw) by intraperitoneal injection (IP), pair-fed mice were fed isocaloric maltose dextrin and all mice were euthanized 6 h later.
Analysis and tests: Mice were treated for 11 days; body weights were measured before and during administration. Plasma was analyzed for ALT, AST, and GGT. A full necropsy was performed at the end-point together with liver histology to assess steatosis, and inflammatory infiltrates. Briefly, liver tissue was fixed in 10% neutral buffered formalin and paraffin-embedded, sectioned into […] thickness, and stained with hematoxylin-eosin (H&E) and Oil-Red O staining for evaluation of histopathological changes. Stained liver slices were analyzed under a bright-field microscope using the histological scoring system for nonalcoholic fatty liver disease (Kleiner D L et al., Hepatology, (2005), 41:1313-21). The remaining liver tissue was analyzed for liver triglycerides and cholesterol levels by biochemical assays.
The AH mouse model was generated as described in Shah et al. through chronic and binge ethanol (EtOH) feeding plus lipopolysaccharide (LPS) administration, to provide a second insult, to increase liver damage (Bertola A et al., Nat Protoc, (2013), 8:627-637; Takahashi Y et al., (2017), 313-339; Shah R et al., Oxid Med Cell Longev, (2018), 2018:9630175). This model recapitulates the major features of human AH, including marked ALT and AST elevation, liver steatosis, and fibrosis (Lucey M R et al., N Engl J Med., (2009), 360:2758-2769). For a dose-response study, a total of 60 (12 per group, 50:50 male/female ratio) C57BL6 mice (6-8-weeks old) were fed Lieber-DeCarli '82 rodent liquid diet (LDC) ad libitum, for 5 days, to acclimatize them to tube feeding. On days 6-11, mice were fed the LCD diet plus ethanol (5% vol:vol), and treated with indeglitazar (10 mg/kg, 30 mg/kg, or 50 mg/kg, oral gavage). On day 12, mice were given a single dose of EtOH (5 g/kg/body weight) by oral gavage and LPS (2 mg/kg/body weight) by ip injection; pair-fed mice were fed isocaloric maltose dextrin and all mice were euthanized 6 h later.

[4] = test system: mouse model of human alcoholic hepatitis; assay: AH (NIAAA) mouse model, 8-week efficacy and safety study, alone and with prednisolone
Excerpt: Mice were fed with the ethanol diet for four weeks, followed by 4 weeks of intervention (8 weeks total treatment).
Livers were collected at the end-point from all mice and weighed. Liver samples were processed for histology to assess steatosis, inflammatory infiltrates and fibrosis. Briefly, liver tissue was fixed in 4% paraformaldehyde and paraffin-embedded, sectioned into 5 m thickness, and stained with hematoxylin-eosin (H&E), Oil-Red O staining, and Masson's trichrome staining.
Safety testing: The safety of indeglitazar treatment was assessed by body weight measurements and full necropsy at endpoint. Mice were terminated from the experiment by isoflurane anesthesia and blood was collected by a cardiac bleed into EDTA-treated tubes, and then centrifuged to obtain plasma to conduct clinical chemistry including full liver and renal toxicology panel. A portion of the liver was analyzed for liver triglycerides and cholesterol levels by biochemical assays. […] Hearts were weighted and fixed in 10% NBF, paraffin embedded, and sectioned into 4-μm thick slices. H&E staining was used to investigate myocardial cell hypertrophy, and ventricle diameters by microscopy.

[5] = indeglitazar 50 mg/kg, prednisolone 10 mg/kg, vs EtOH-treated vehicle control
[6] = indeglitazar 50 mg/kg, prednisolone 10 mg/kg, vs ethanol-treated vehicle control
[7] = indeglitazar 50 mg/kg, prednisolone 10 mg/kg, vs vehicle+EtOH
[8] = indeglitazar 50 mg/kg/day, prednisolone 10 mg/kg/day, vs ethanol-treated vehicle control
[9] = indeglitazar 50 mg/kg/day, prednisolone 10 mg/kg/day, vs ethanol-treated vehicle control, listed as indeglitazar

COc1ccc(S(=O)(=O)n2cc(CCC(=O)O)c3cc(OC)ccc32)cc1 [Indeglitazar, 3-[5-methoxy-1-(4-methoxybenzenesulfonyl)-1H-indol-3-yl]-propanoic acid]
stimulating adiponectin gene expression [1]: only partially effective
promoting adipocyte differentiation [2]: less potent
agonism towards PPARδ (PPARδ): partial agonism
agonism against PPARα (PPARα): full agonism
effect on liver triglycerides ([3]; 50 mg/kg, vs vehicle+EtOH): significantly reduced
reduction of ALT activity ([3]; 50 mg/kg, vs vehicle+EtOH, P<0.0001): 60%
reduction of AST ([3]; 50 mg/kg, vs vehicle+EtOH, P<0.004): 49%
reduction of liver TG ([3]; 50 mg/kg, vs vehicle+EtOH, P<0.03): 35%
effect on liver total cholesterol ([3]; 10, 30, 50 mg/kg/day): no significant effect
effect on food intake ([3]; 10, 30 and 50 mg/kg oral gavage, vs EtOH-treated vehicle control): Neither EtOH (vs no EtOH vehicle control) or indeglitazar had a significant effect
effect on body weight ([3]; vs ethanol-treated vehicle control): no significant effect
effect on body weight ([3]; vs ethanol-treated vehicle control, listed as indeglitazar): Neither EtOH (vs no EtOH vehicle control) or indeglitazar had a significant effect; also recorded: no significant effect
effect on AST ([3]; 10 and 50 mg/kg, vs ethanol-treated vehicle control): significant decreases
effect on ALT ([3]; all three doses (10, 30, 50 mg/kg), vs ethanol-treated vehicle control): significant decrease
liver histopathology: steatosis, hepatocellular karyomegaly, and ballooning ([4]; indeglitazar 50 mg/kg, prednisolone 10 mg/kg, data not shown): reduced significantly
effect on liver hydroxyproline [4, 5]: significant decrease
effect on plasma adiponectin [4, 5]: significant increase
effect on ALT [4, 6]: significant decreases
effect on AST [4, 6]: significant decreases
effect on plasma TGFβ [4, 6]: significant decrease
effect on total bilirubin [4, 6]: decrease; also recorded: significant decreases
decrease of liver TG [4, 7]: 28%
decrease of plasma TGFβ [4, 7]: 66%
decrease of plasma TNF-α [4, 7]: 50%
increase of adiponectin [4, 7]: 31%
decrease of hydroxyproline ([4]; indeglitazar 50 mg/kg, prednisolone 10 mg/kg, vs vehicle+EtOH, P<0.0001): 31%
effect on body weight [4, 8]: no significant effect
effect on gamma-glutamyl transferase (GGT) [4, 8]: no significant effect
effect on heart weight (actual) [4, 8]: no significant effect
effect on heart weight divided by body weight×100 [4, 8]: no significant effect
effect on body weight [4, 9]: Neither EtOH (vs no EtOH vehicle control), indeglitazar, or prednisolone had a significant effect
effect on heart weight (actual) [4, 9]: Neither EtOH (vs no EtOH vehicle control), indeglitazar, or prednisolone had a significant effect
effect on overall survival ([4]; indeglitazar 50 mg/kg/day, prednisolone 10 mg/kg/day, vs ethanol-treated vehicle control, male and female mice): significant increase; also recorded: significantly increased

From patent US12485106B2, “Methods of treating fibrotic liver diseases or conditions with indeglitazar” (PLEIOGENIX INC., priority 2023, dated 2025)
